According to patent US8962637B2, “Bicyclic compounds and their uses as dual c-SRC/JAK inhibitors” (Debiopharm S.A., priority 2010, dated 2015):

Key:
pStat3 = assay: In-Cell-Western blot assay for pStat3 (ICW) in A431 cells; type: cell-based; conditions: Homo sapiens, A-431, 2 hrs, read-out: pSTAT3 inhibition
Protocol: A431 cells were seeded onto a 96-well micro plate. After overnight serum starvation cells were incubated with compounds for 2 hrs. Cells were fixed with 4% paraformaldehyde in PBS and then permeabilized with 0.1% Triton X-100 in PBS (PBST). Cells were blocked with 5% BSA in PBST for 2 hrs, followed by overnight incubation with phospho Stat3 antibody. Cells were washed and incubated with europium-labeled anti-rabbit secondary antibody for 2 hrs. After washing enhancement solution was added to the wells. The micro-plate was read on the Victor instrument at the Europium setting. The Hoechst readings were used to normalize for cell number. IC50 values were calculated with the normalized europium values using Graphpad Prism.

A431 cancer cell line = assay: Inhibition of cell growth in A431; type: cell-based; conditions: Homo sapiens, A-431
A549 cells = assay: Cell viability assay (XTT assay), A549; type: cell-based; conditions: Homo sapiens, 72 hrs
Protocol: Next day compounds were added to cells and incubated for 72 hrs. Compound treatment was done in triplicates. After 72 hrs cell culture media was aspirated from the wells and XTT working solution was added and plates were incubated for 2-5 hrs. […] EC50 values were calculated using Graphpad Prism. Tumor cell lines used in the examples of the present invention were procured from ATCC. Description of the cell lines is included in the following table: […]

Mda-Mb-231 cells = assay: Cell viability assay (XTT assay), Mda-Mb-231; type: cell-based; conditions: Homo sapiens, 72 hrs
Protocol: Mda-Mb-231 or A549 cells were seeded onto a 96-well micro plate. Next day compounds were added to cells and incubated for 72 hrs. Compound treatment was done in triplicates. After 72 hrs cell culture media was aspirated from the wells and XTT working solution was added and plates were incubated for 2-5 hrs. The absorbance of the samples was measured with a spectrophotometer at a wavelength of 465 nm. EC50 values were calculated using Graphpad Prism. Tumor cell lines used in the examples of the present invention were procured from ATCC. Description of the cell lines is included in the following table: […]

c-Src = c-Src (Homo sapiens (Human), UniProt P12931); assay: TR-FRET c-Src kinase assay; type: biochemical; conditions: ATP 50 μM; for inhibition at 0.1 µM: read-out: c-SRC % inhibition at 100 nM, 100 nM; for inhibition at 1 µM: read-out: c-SRC % inhibition at 1 μM
c-Src, sequence (P12931 whole entry, looked up): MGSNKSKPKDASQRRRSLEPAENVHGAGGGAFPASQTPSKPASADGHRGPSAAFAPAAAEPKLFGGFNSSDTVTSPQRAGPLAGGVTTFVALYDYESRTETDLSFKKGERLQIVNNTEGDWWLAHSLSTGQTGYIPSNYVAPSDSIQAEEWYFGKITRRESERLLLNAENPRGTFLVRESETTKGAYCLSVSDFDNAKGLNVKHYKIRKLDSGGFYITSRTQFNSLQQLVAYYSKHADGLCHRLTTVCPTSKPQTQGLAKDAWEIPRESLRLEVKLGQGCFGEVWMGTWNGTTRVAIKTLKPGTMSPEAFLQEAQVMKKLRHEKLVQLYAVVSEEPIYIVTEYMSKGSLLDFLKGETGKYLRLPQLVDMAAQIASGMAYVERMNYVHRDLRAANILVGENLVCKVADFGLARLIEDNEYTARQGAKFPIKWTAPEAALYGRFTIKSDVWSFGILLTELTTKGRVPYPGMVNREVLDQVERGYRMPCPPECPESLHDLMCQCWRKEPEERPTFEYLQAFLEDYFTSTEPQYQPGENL
Protocol: (§1) Compounds were screened in the TR-FRET assay for JAK2 and c-Src kinase inhibition. Ultra light poly GT (Perkin Elmer) was used as the substrate for JAK2 and c-Src with the ATP concentration of 10 μM and 50 μM, respectively. […] The dose-response curve fitting was done using GraphPad Prism software.

JAK2 = JAK2 (Homo sapiens (Human), UniProt O60674); assay: TR-FRET JAK2 kinase assay; type: biochemical; conditions: ATP 10 μM; for inhibition at 0.1 µM: read-out: JAK2 % inhibition at 100 nM, 100 nM; for inhibition at 1 µM: read-out: JAK2 % inhibition at 1 μM
JAK2, sequence (O60674 whole entry): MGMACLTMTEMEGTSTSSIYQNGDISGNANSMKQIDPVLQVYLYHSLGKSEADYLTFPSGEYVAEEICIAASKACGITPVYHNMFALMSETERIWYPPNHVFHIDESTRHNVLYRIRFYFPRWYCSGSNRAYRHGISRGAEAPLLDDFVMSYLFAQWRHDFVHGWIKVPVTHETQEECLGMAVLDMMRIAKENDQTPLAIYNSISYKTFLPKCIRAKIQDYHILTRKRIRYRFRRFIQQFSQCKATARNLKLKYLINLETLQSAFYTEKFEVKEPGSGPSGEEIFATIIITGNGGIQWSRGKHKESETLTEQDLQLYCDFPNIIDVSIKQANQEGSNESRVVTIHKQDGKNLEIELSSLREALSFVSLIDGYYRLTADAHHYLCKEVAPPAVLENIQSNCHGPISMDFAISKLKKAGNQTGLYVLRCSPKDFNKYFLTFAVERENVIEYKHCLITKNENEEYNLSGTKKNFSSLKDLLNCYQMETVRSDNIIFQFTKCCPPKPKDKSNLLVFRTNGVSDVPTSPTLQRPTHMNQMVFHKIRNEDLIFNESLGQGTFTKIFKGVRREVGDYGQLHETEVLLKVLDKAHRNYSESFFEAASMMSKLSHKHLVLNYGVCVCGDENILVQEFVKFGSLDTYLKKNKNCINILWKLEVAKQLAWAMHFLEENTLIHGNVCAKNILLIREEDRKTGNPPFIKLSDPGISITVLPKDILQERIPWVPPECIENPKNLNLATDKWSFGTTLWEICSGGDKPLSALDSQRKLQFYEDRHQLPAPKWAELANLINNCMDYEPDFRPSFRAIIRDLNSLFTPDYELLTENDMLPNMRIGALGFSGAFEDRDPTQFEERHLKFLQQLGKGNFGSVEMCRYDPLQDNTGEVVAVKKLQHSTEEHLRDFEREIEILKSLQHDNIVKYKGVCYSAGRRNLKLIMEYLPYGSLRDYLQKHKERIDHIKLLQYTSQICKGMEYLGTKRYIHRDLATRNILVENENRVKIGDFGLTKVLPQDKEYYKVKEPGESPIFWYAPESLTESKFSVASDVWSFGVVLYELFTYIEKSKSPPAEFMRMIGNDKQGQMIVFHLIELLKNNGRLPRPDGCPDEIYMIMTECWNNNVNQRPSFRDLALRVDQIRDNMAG
Protocol: as §1

Compound | IC50 (pStat3) [nM] | EC50 (A431 cancer cell line) [nM] | EC50 (A549 cells) [nM] | EC50 (Mda-Mb-231 cells) [nM] | IC50 (c-Src) [nM] | inhibition at 0.1 µM (c-Src) [%] | inhibition at 1 µM (c-Src) [%] | IC50 (JAK2) [nM] | inhibition at 0.1 µM (JAK2) [%] | inhibition at 1 µM (JAK2) [%]
Cc1ccc(NC(=O)c2cccc(C(C)(C)C)c2)cc1N1CCc2nc(Nc3ccc(N4CCN(C)CC4)cc3)ncc2C1=O [Compound 86] | 580 | 570 | 78 | 530 |  |  |  |  |  | 
Cc1ccc(NC(=O)N2CCCCC2)cc1N1CCc2nc(Nc3ccc(OCCN4CCCC4)cc3)ncc2C1 [Compound 107, Piperidine-1-carboxylic acid (4-methyl-3-{2-[4-(2-pyrrolidin-1-yl-ethoxy)-phenylamino]-7,8-dihydro-5H-pyrido[4,3-d]pyrimidin-6-yl}-phenyl)-amide] | 120 | 120 |  | 610 | 1 | 93 | 98 | 40 | 72 | 94
Cc1ccc(NC(=O)c2cccc(C(F)(F)F)c2)cc1N1CCc2nc(Nc3ccc(C(=O)N4CCN(C)CC4)nc3)ncc2C1 [Compound 132, N-(4-Methyl-3-{2-[6-(4-methyl-piperazine-1-carbonyl)-pyridin-3-ylamino]-7,8-dihydro-5H-pyrido[4,3-d]pyrimidin-6-yl}-phenyl)-3-trifluoromethyl-benzamide] | 480 |  | 47 | 41 | 5 |  |  | 3 |  | 
Cc1ccc(NC(=O)c2cccc(C(F)(F)F)c2)cc1N1CCc2nc(Nc3cccc(CN4CCN(C)CC4)c3)ncc2C1 [Compound 137, N-(4-Methyl-3-{2-[3-(4-methyl-piperazin-1-ylmethyl)-phenylamino]-7,8-dihydro-5H-pyrido[4,3-d]pyrimidin-6-yl]-phenyl)-3-trifluoromethyl-benzamide] | 670 | 670 | 426 | 74 | 7 |  |  |  |  | 
Cc1ccc(NC(=O)c2cccc(C(F)(F)F)c2)cc1N1CCc2nc(Nc3ccc(S(=O)(=O)NC4CC4)cc3)ncc2C1 [Compound 165, N-{3-[2-(4-Cyclopropylsulfamoyl-phenylamino)-7,8-dihydro-5H-pyrido[4,3-d]pyrimidin-6-yl]-4-methyl-phenyl}-3-trifluoromethyl-benzamide] | 257 | 320 |  | 440 | 16 | 93 | 98 | 54 | 74 | 93
O=C(Nc1ccc(Cl)c(N2CCc3nc(Nc4ccc(OCCN5CCCC5)cc4)ncc3C2=O)c1)c1cccc(C(F)(F)F)c1 [Compound 181, N-(4-Chloro-3-{5-oxo-2-[4-(2-pyrrolidin-1-yl-ethoxy)-phenylamino]-7,8-dihydro-5H-pyrido[4,3-d]pyrimidin-6-yl}-phenyl)-3-trifluoromethyl-benzamide] |  | 1300 | 2540 | 3340 |  | 53 | 77 |  | 85 | 93
Cc1ccc(NC(=O)c2cccc(C(F)(F)F)c2)cc1N1CCc2nc(Nc3ccc(OCCCN4CCOCC4)cc3)ncc2C1=O [Compound 182, N-(4-Methyl-3-{2-[4-(3-morpholin-4-yl-propoxy)-phenylamino]-5-oxo-7,8-dihydro-5H-pyrido[4,3-d]pyrimidin-6-yl}-phenyl)-3-trifluoromethyl-benzamide] |  | 5070 | 1080 | 2760 |  | 51 | 80 |  | 55 | 85
Cc1cnc(Nc2ccc(OCCN3CCCC3)cc2)nc1Nc1cccc(S(=O)(=O)NC(C)(C)C)c1 [TG101348, reference compound] | > 10000 |  | 1200 | 680 |  |  |  |  |  | 
